{
  "source": "paper PMC4751497",
  "about": "“Characterization of SCO4439, a D-alanyl-D-alanine carboxypeptidase involved in spore cell wall maturation, resistance, and germination in Streptomyces coelicolor” (Scientific Reports, 2016)",
  "molecular_target": "T1, His6-SCO4439 (Streptomyces coelicolor, UniProt Q9KZY7)",
  "T1 construct": "whole SCO4439 gene with N-terminal His6 tag in pET11a (pBRB7), expressed in E. coli JM109 (DE3), HisTrap purified, tag kept; native protein 84 kDa; tag followed by VARED (from primer BRB7F)",
  "T1 sequence (Q9KZY7 entry or part of it)": "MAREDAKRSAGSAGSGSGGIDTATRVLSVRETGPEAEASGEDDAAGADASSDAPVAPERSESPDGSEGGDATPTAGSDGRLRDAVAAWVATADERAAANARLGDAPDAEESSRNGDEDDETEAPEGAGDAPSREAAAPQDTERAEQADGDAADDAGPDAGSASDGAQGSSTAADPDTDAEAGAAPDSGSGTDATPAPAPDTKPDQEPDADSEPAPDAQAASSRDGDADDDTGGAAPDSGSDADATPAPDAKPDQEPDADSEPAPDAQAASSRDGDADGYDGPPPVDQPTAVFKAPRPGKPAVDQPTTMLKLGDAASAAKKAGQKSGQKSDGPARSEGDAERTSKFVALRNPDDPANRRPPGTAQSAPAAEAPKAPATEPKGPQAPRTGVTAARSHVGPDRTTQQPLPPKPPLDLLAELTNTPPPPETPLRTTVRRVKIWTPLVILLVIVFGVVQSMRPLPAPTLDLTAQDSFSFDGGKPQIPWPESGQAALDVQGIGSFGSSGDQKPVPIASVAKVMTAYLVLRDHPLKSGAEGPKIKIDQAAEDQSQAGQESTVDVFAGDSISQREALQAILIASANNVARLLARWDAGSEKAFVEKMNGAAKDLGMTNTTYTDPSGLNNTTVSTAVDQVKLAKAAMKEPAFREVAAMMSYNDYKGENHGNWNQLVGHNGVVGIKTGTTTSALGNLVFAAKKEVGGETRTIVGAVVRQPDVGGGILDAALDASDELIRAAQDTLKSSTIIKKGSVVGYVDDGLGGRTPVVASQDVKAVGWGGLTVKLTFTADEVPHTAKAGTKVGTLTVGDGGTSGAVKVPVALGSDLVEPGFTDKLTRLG",
  "test": "D-Ala release, D-amino acid oxidase-peroxidase coupled colorimetric assay",
  "assay_type": "biochemical",
  "note": "pIC50: −log10 of the molar value.",
  "data": [
    {"smiles": "CC1(C)S[C@@H]2[C@H](NC(=O)Cc3ccccc3)C(=O)N2[C@H]1C(=O)O", "note": "[penicillin G]", "values": [
      {"measurement": "pIC50", "value": 3.00}
    ]}
  ]
}
